Results from patent US10029994B2, “Isoxazole hydroxamic acid compounds as LpxC inhibitors” (priority 2014, dated 2018).
Read-outs that look alike come from different tables or passages of the source.

How the values were obtained:
P. A. PAO1 NB52019 = assay: MIC, broth microdilution (CLSI); type: cell-based, Pseudomonas aeruginosa; settings: for MIC: Pseudomonas aeruginosa, read-out: P. A. PAO1 NB52019 MIC
Protocol: (§1) Bacterial isolates were cultivated from −70° C. frozen stocks by two consecutive overnight passages at 35° C. in ambient air on 5% blood agar (Remel, Lenexa, Kans.). Quality control strain, P. aeruginosa ATCC 27853, A. baumannii ATCC19606 and E. coli ATCC 25922 are from the American Type Culture Collection (ATCC; Rockville, Md.) and PAO1 was received from Dr. K. Poole.
(§2) Minimal Inhibitory Concentrations (MICs) were determined by the broth microdilution method in accordance with Clinical and Laboratories Institute (CLSI) guidelines (CLSI M100-S25, Performance Standards for Antimicrobial Susceptibility Testing; Twenty-fifth Informational Supplement). In brief, fresh bacterial overnight cultures were resuspended in sterile saline, adjusted to a 0.5 McFarland turbidity standard and then diluted 2000-fold in cation adjusted Mueller-Hinton Broth II (MHB; Remel BBL) to yield a final inoculum of approximately 5×10^5 colony-forming units (CFU)/mL. Two-fold serial dilutions of compounds were prepared in 100% dimethyl sulfoxide (DMSO) at 100-fold the highest final assay concentration; the resulting dilution series of compounds were diluted 1:10 with sterile water. Ten μl of the drug dilution series in 10% DMSO was transferred to microtiter wells and 90 μl of bacterial suspension was inoculated into the wells. For testing the ability of compounds to potentiate the activity of known antibiotics, the assay was modified as follows; known antibiotics were added to the bacterial inoculum at 1.1-fold the final assay concentration indicated in Table A. All inoculated microdilution trays were incubated in ambient air at 35° C. for 20 hours. Following incubation, assay plates were read in a microtiter plate reader at 600 nm and visually inspected to confirm the MIC endpoint well with the OD value. The lowest concentration of the compound that prevented visible growth was recorded as the MIC. Performance of the assay was monitored by testing ciprofloxacin against the laboratory quality control strain in accordance with guidelines of the CLSI.

A. B. ATCC 19606 [1] = assay: MIC in the presence of sub-inhibitory rifampicin (potentiation/synergy); type: cell-based, Acinetobacter baumannii; settings: +2 μg/ml rifampicin (RIF); broth microdilution, 35° C., 20 hours
Protocol: as §1, §2

E. C. ATCC 29522 = assay: as above; type: cell-based, Escherichia coli; settings: +2 μg/ml rifampicin (RIF); broth microdilution, 35° C., 20 hours
Protocol: as §1, §2

E. C. ATCC 25922 = assay: MIC, broth microdilution (CLSI); type: cell-based, Escherichia coli; settings: for MIC: Escherichia coli, ATCC25922, 20 h, read-out: E. C. ATCC 25922 MIC
Protocol: as §1, §2

A. B. ATCC 19606 [2] = assay: MIC, broth microdilution (CLSI); type: cell-based, Acinetobacter baumannii; settings: for MIC: Acinetobacter baumannii, read-out: A. B. ATCC 19606 MIC
Protocol: as §1, §2

P. aeruginosa LpxC = target: T1, P. aeruginosa LpxC (Pseudomonas aeruginosa, UniProt P47205); assay: P. aeruginosa LpxC Inhibition Assay (LC-MS/MS); type: biochemical; settings: 1 nM P. aeruginosa LpxC, 30 min pre-incubation, 2 μM UDP-3-O-(R-3-hydroxydecanoyl)-GlcNAc, pH 7.5
T1 construct: made in house
T1 sequence (P47205 1-303): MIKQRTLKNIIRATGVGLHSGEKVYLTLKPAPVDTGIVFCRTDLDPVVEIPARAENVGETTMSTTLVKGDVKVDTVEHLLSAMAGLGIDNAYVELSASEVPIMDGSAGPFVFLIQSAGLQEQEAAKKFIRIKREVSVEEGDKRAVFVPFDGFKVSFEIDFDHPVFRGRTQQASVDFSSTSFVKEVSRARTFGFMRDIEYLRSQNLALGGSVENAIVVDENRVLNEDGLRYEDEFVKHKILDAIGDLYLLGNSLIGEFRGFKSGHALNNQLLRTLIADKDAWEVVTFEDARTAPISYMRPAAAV
Source text: P. aeruginosa LpxC Inhibition Assay
The P. aeruginosa LpxC protein is produced according to the general method of Hyland et al (Journal of Bacteriology 1997 179, 2029-2037: Cloning, expression and purification of UDP-3-O-acyl-GlcNAc deacetylase from Pseudomonas aeruginosa: a metalloamidase of the lipid A biosynthesis pathway). The LC-MS/MS method for quantitation of LpxC product was developed using an Agilent 1200 Capillary HPLC system coupled to an Applied Biosystems MDS Sciex 4000QTRAP mass spectrometer. Both instruments are controlled using the Applied Biosystems MDS Sciex Analyst software. LpxC reaction product (UDP-3-O—(R-3-hydroxyacyl)-glucosamine) was produced by hydrolysis of LpxC substrate catalyzed by P.a. LpxC and purified using reversed phase chromatography on a Phenomenex Luna C18(2) 4.6×50 mm column. An LpxC product calibration curve was generated to evaluate the sensitivity and dynamic range of the LC-MS/MS method. Briefly, compounds are pre-incubated with 1 nM P. aeruginosa LpxC for 30 min. at room temperature. Reactions are initiated by the addition of 2 μM UDP-3-O—(R-3-hydroxydecanoyl)-GlcNAc. Reactions are conducted in a 384-well plate with a total volume of 50 μL in each well containing 50 mM Sodium phosphate pH 7.5, 0.005% Trition X-100 for 20 min at room temperature. After quenching with 1.8% HOAc (5 μL of a 20% HOAc added to each well), reaction mixtures are analyzed using the LC-MS/MS method and peak areas are transformed into product concentration using a LpxC product calibration curve. Total activity (0% inhibition control) is obtained from reactions with no inhibitors and 100% inhibition control is the background using quenched samples before reaction starts. For IC50 determinations, peak areas are converted to percent inhibition in Microsoft Excel. Percent inhibition values are plotted vs. log compound concentration using XLfit. Data is fit to the four-parameter logistic equation using the non-linear regression algorithm in XLfit to return the IC50 and hill slope values.

[3] = PAO1, broth microdilution, 35° C., 20 hours
[4] = broth microdilution, 35° C., 20 hours
[5] = ATCC19606, broth microdilution, 35° C., 20 hours

MIC (P. A. PAO1 NB52019; [3]) [µg/mL] | A. B. ATCC 19606 (+2 μg/ml RIF) MIC (A. B. ATCC 19606 [1]) [µg/mL] | E. C. ATCC 29522 (+2 μg/ml RIF) MIC (E. C. ATCC 29522) [µg/mL] | MIC (E. C. ATCC 25922; [4]) [µg/mL] | MIC (A. B. ATCC 19606 [2]; [5]) [µg/mL] | P. A. PAO1 NB52019 MIC (P. A. PAO1 NB52019; [4]) [µg/mL] | E. C. ATCC 25922 MIC (E. C. ATCC 25922; [4]) [µg/mL] | A. B. ATCC 19606 MIC (A. B. ATCC 19606 [2]; [4]) [µg/mL] | IC50 (P. aeruginosa LpxC) [nM] | Structure (SMILES) | MIC (P. A. PAO1 NB52019; PAO1, 20 h) [µg/mL] | MIC (E. C. ATCC 25922) [µg/mL] | MIC (A. B. ATCC 19606 [2]; ATCC19606, 20 h) [µg/mL]
2 | 0.25 | 0.25 | 8 | > 64 |  |  |  |  | COCC1CC(C#Cc2cc(CC[C@](C)(C(=O)NO)S(C)(=O)=O)no2)C1 (single isomer, unassigned) [Compound 1.15a] |  |  | 
 | 0.5 | 0.25 |  |  | 2 | 4 | >64 |  | COCC1CC(C#Cc2cc(CC[C@](C)(C(=O)NO)S(C)(=O)=O)no2)C1 (single isomer, unassigned) [Compound 1.15b] |  |  | 
0.125 | ≤0.06 | ≤0.06 | 2 | > 64 |  |  |  | < 1 | C[C@@](CCc1cc(C#CC2CCC2)on1)(C(=O)NO)S(C)(=O)=O [Compound 1.2, (R)-4-(5-(cyclobutylethynyl)isoxazol-3-yl)-N-hydroxy-2-methyl-2-(methylsulfonyl)butanamide] |  |  | 
0.25 | 0.25 | 2 | 8 | > 64 |  |  |  | < 1 | CC(C)(C)C#Cc1cc(CC[C@](C)(C(=O)NO)S(C)(=O)=O)no1 [Compound 1.3, (R)-4-(5-(3,3-dimethylbut-1-yn-1-yl)isoxazol-3-yl)-N-hydroxy-2-methyl-2-(methylsulfonyl)butanamide] |  |  | 
0.25 | 2 | ≤0.06 | 4 | > 64 |  |  |  | 2 | CC#Cc1cc(CC[C@](C)(C(=O)NO)S(C)(=O)=O)no1 [Compound 1.4, (R)—N-hydroxy-2-methyl-2-(methylsulfonyl)-4-(5-(prop-1-yn-1-yl)isoxazol-3-yl)butanamide] |  |  | 
0.25 | ≤0.06 | ≤0.06 | 4 | > 64 |  |  |  | 1 | CCC#Cc1cc(CC[C@](C)(C(=O)NO)S(C)(=O)=O)no1 [Compound 1.5, (R)-4-(5-(but-1-yn-1-yl)isoxazol-3-yl)-N-hydroxy-2-methyl-2-(methylsulfonyl)butanamide] |  |  | 
0.5 | 0.125 | 0.125 | 4 | > 64 |  |  |  | < 1 | CC(C)C#Cc1cc(CC[C@](C)(C(=O)NO)S(C)(=O)=O)no1 [Compound 1.6, (R)—N-hydroxy-2-methyl-4-(5-(3-methylbut-1-yn-1-yl)isoxazol-3-yl)-2-(methylsulfonyl)butanamide] |  |  | 
0.25 | 0.125 | ≤0.06 | 2 | > 64 |  |  |  | < 1 | CCCC#Cc1cc(CC[C@](C)(C(=O)NO)S(C)(=O)=O)no1 [Compound 1.7, (R)—N-hydroxy-2-methyl-2-(methylsulfonyl)-4-(5-(pent-1-yn-1-yl)isoxazol-3-yl)butanamide] |  |  | 
0.25 | ≤0.06 | 0.25 | 8 | > 64 |  |  |  | < 1 | CC1(C#Cc2cc(CC[C@](C)(C(=O)NO)S(C)(=O)=O)no2)CC1 [Compound 1.8, (R)—N-hydroxy-2-methyl-4-(5-((1-methylcyclopropyl)ethynyl)isoxazol-3-yl)-2-(methylsulfonyl)butanamide] |  |  | 
1 | 1 | 0.125 | 32 | > 64 |  |  |  | 3 | C[C@@](CCc1cc(C#CCCF)on1)(C(=O)NO)S(C)(=O)=O [Compound 1.9] |  |  | 
0.5 | ≤0.06 | 0.25 | 16 | > 64 |  |  |  |  | C[C@@](CCc1cc(C#CC2CC(F)C2)on1)(C(=O)NO)S(C)(=O)=O (stereo partly drawn) [Compound 1.13, (R)-4-(5-((3-fluorocyclobutyl)ethynyl)isoxazol-3-yl)-N-hydroxy-2-methyl-2-(methylsulfonyl)butanamide] |  |  | 
0.25 | 0.5 | 0.125 | 8 | > 64 |  |  |  |  | C[C@@](CCc1cc(/C=C/C2CC2)on1)(C(=O)NO)S(C)(=O)=O [Compound 4.2, (R,E)-4-(5-(2-cyclopropylvinyl)isoxazol-3-yl)-N-hydroxy-2-methyl-2-(methylsulfonyl)butanamide] |  |  | 
8 | 16 | 2 | 64 | > 64 |  |  |  |  | C[C@@](CCc1cc(/C(F)=C\C2CC2)on1)(C(=O)NO)S(C)(=O)=O [Compound 4.5-2, (R,E)-4-(5-(2-cyclopropyl-1-fluorovinyl)isoxazol-3-yl)-N-hydroxy-2-methyl-2-(methylsulfonyl)butanamide] |  |  | 

Structure (SMILES) | MIC (P. A. PAO1 NB52019; [3]) [µg/mL] | A. B. ATCC 19606 (+2 μg/ml RIF) MIC (A. B. ATCC 19606 [1]) [µg/mL] | E. C. ATCC 29522 (+2 μg/ml RIF) MIC (E. C. ATCC 29522) [µg/mL] | MIC (E. C. ATCC 25922; [4]) [µg/mL] | MIC (A. B. ATCC 19606 [2]; [5]) [µg/mL] | P. A. PAO1 NB52019 MIC (P. A. PAO1 NB52019; [4]) [µg/mL] | E. C. ATCC 25922 MIC (E. C. ATCC 25922; [4]) [µg/mL] | A. B. ATCC 19606 MIC (A. B. ATCC 19606 [2]; [4]) [µg/mL] | IC50 (P. aeruginosa LpxC) [nM] | MIC (P. A. PAO1 NB52019; PAO1, 20 h) [µg/mL] | MIC (E. C. ATCC 25922) [µg/mL] | MIC (A. B. ATCC 19606 [2]; ATCC19606, 20 h) [µg/mL]
C[C@@](CCc1cc(C#CC2CC2)on1)(C(=O)NO)S(C)(=O)=O [Compound 1.1, (R)-4-(5-(cyclopropylethynyl)isoxazol-3-yl)-N-hydroxy-2-methyl-2-(methylsulfonyl)butanamide] | 0.25 | 0.125 | ≤0.06 | 2 | > 64 |  |  |  | 3 |  |  | 
C/C=C(/C)c1cc(CC[C@](C)(C(=O)NO)S(C)(=O)=O)no1 [Compound 4.3-2, (R,Z)-4-(5-(but-2-en-2-yl)isoxazol-3-yl)-N-hydroxy-2-methyl-2-(methylsulfonyl)butanamide] |  | 8 | 0.5 |  |  |  |  |  |  | 2 | 16 | > 64
